By MIC is commonly meant the lowest concentration that inhibits growth of the organism. A word on the logD: it is the decadic logarithm of the distribution of all forms, ionised or not, between an organic phase and buffer at a given pH. Usually IC50 stands for the concentration that gives 50% inhibition. As usually defined, the pIC50 is the IC50 on a negative log10 scale, so that one unit is a factor of ten.

Series [1] has as its system Mycobacterium tuberculosis. Put plainly: Antimycobacterial activity against Mycobacterium tuberculosis H37Rv. The class given is functional.
A short description of series [2]: Lipophilicity, log D of the compound at pH 7.4. The conditions noted are these: buffer. The class given is physicochemical.
The nature of series [3]: Inhibition of Mycobacterium tuberculosis DprE1.
In a further series the test system is HepG2. Put plainly: Cytotoxicity against human HepG2 cells assessed as reduction in cell viability. The class given is cell-based.

≈ marks a conversion by molar mass, not a printed value. A value given as a limit tells only on which side of the number the result lay.

Take `CC(C(=O)Nc1ccc(Br)cc1)N(C)c1ccc2c(c1)OCCO2` (centres undefined): inhibition of growth in series [1] (MIC) required 2.5 µM (≈ 0.978 µg/mL). In series [2], this compound yielded a logD of 6.7. Also, in series [3], the IC50 worked out at 63 nM and the negative-log IC50 (pIC50) worked out at 7.2.
Taken in the same sequence, the figures for `CCC(Nc1ccc2c(c1)OCCO2)C(=O)Nc1ccc(Br)cc1` (centres undefined) were 62 µM (≈ 24.3 µg/mL), 6, 3980 nM and 5.4.
On to `COc1cc(NC(C)C(=O)Nc2ccc(Br)cc2)cc(OC)c1` (centres undefined), for which, in series [3], 25100 nM corresponded to half-maximal inhibition (IC50) and the pIC50 was 4.6.
Take `CNC(=O)C(C)Nc1ccc2c(c1)OCCO2` (centres undefined): the MIC in series [1] was > 125 µM. For the same compound, in series [3], the half-maximal inhibitory concentration (IC50) was 31600 nM and the pIC50 came out at 4.5.
`CC(Oc1ccc2c(c1)OCCO2)C(=O)Nc1ccc(Br)cc1` (centres undefined): inhibition of growth in series [1] (MIC) required 12 µM (≈ 4.54 µg/mL). In series [2], this compound displayed a pH-dependent lipophilicity (logD) of 6.2. In series [3], the midpoint of inhibition, the IC50, lay at 200 nM and the pIC50 came out at 6.7.
With `CNC(=O)c1ccc(NC(=O)C(C)Nc2ccc3c(c2)OCCO3)cc1` (centres undefined), in series [2], the pH-dependent lipophilicity (logD) came out at 2.4. In series [3], the IC50 was > 100000 nM and the negative-log IC50 (pIC50) was < 4.
As for `CC(Nc1ccc2c(c1)OCCO2)C(=O)Nc1nc2ccccc2[nH]1` (centres undefined), in series [1], it took 62 µM (≈ 21 µg/mL) to inhibit growth (MIC). This compound had a logD in series [2] of 3.7. Besides, in series [3], the IC50 came out at 3980 nM and the pIC50 was determined as 5.4.
Taken in the same sequence, the figures for `CC(Nc1ccc2c(c1)OCCO2)C(=O)Nc1ccc(Br)cn1` (centres undefined) were 80 µM (≈ 30.3 µg/mL), 5.4, 6310 nM and 5.2.
Turning to `CC(Nc1ccc2c(c1)OCCO2)C(=O)Nc1ccc(C(F)(F)F)cc1` (centres undefined), in series [3], the IC50 came out at 126 nM and the pIC50 is reported as 6.9.
In turn, `CC(Nc1cnc2c(c1)OCCO2)C(=O)Nc1ccc(Br)cc1` (centres undefined) showed an MIC in series [1] of 62 µM (≈ 23.5 µg/mL). This compound came in with a logD in series [2] of 4. In addition, in series [3], inhibition was half-maximal at 2000 nM (IC50) and the pIC50 is 5.7.
Compound `CC(Nc1ccc2c(c1)OCCCO2)C(=O)Nc1ccc(Br)cc1` (centres undefined) yielded an MIC in series [1] of 4 µM (≈ 1.57 µg/mL). For the same compound, the logD in series [2] came to 5.7. Besides, in series [3], it took 158 nM to reach half-maximal inhibition (IC50) and the negative logarithm of the IC50 (pIC50) was determined as 6.8.
`CC(Nc1ccc2c(c1)OCCO2)C(=O)Nc1ccc2cc[nH]c2c1` (centres undefined) showed an MIC in series [1] of 32 µM (≈ 10.8 µg/mL). In series [2], this compound displayed a logD of 4. Further, in series [3], half-maximal inhibition (IC50) required 794 nM and the pIC50 came to 6.1.
Turning to `CC(Nc1ccc2c(c1)OCO2)C(=O)Nc1ccc(Br)cc1` (centres undefined), in series [3], the IC50 stood at 1000 nM and the pIC50 was found to be 6.
Turning to `O=C1C(Cc2ccc3c(c2)OCCO3)CCCN1c1ccc(Br)cc1` (centres undefined), the MIC in series [1] stood at 110 µM (≈ 44.3 µg/mL). In series [2], this compound returned a logD of 5.8. In addition, in series [3], the concentration for half-maximal inhibition (IC50) came out at 63100 nM and the pIC50 was determined as 4.2.
Regarding `CC(Nc1ccc2c(c1)OCCO2)C(=O)Nc1ccccc1` (centres undefined), in series [1], the MIC was > 125 µM. The same compound had a logD in series [2] of 4.3. In series [3], this compound showed a half-maximal inhibitory concentration (IC50) of 63100 nM and a pIC50 of 4.2.
In the case of `CC(C)C(Nc1ccc2c(c1)OCCO2)C(=O)Nc1ccc(Br)cc1` (centres undefined), the minimal inhibitory concentration (MIC) in series [1] was > 125 µM. The compound further displayed a log distribution coefficient (logD) in series [2] of 6.6. In series [3], this compound displayed an IC50 of 39800 nM and a pIC50 of 4.4.
In series [1], `C[C@@H](Nc1ccc2c(c1)OCCO2)C(=O)Nc1ccc(Br)cc1` registered an MIC of 6.5 µM (≈ 2.45 µg/mL). Also, in series [2], the pH-dependent lipophilicity (logD) came to 5.5. In series [3], this compound returned an IC50 of 251 nM and a pIC50 of 6.6.
For `CC(Nc1ccc2c(c1)NC(=O)CO2)C(=O)Nc1ccc(Br)cc1` (centres undefined), the logD in series [2] is 4.2. For the same compound, in series [3], the IC50 is > 100000 nM and the negative-log IC50 (pIC50) is recorded as < 4.
As to `Cc1ccc(NC(=O)C(C)Nc2ccc3c(c2)OCCO3)cc1` (centres undefined), in series [1], the MIC was determined as 125 µM (≈ 39 µg/mL). The logD in series [2] turned out to be 4.8. In series [3], this compound returned an IC50 of 15800 nM and a negative logarithm of the IC50 (pIC50) of 4.8.
`CC(Nc1ccc2c(c1)NCCC2)C(=O)Nc1ccc(Br)cc1` (centres undefined) returned an MIC in series [1] of 125 µM (≈ 46.8 µg/mL). In series [2], this compound had a logD of 6. In series [3], this compound gave an IC50 of 1260 nM and a pIC50 of 5.9.
Taken in the same sequence, the figures for `CC(Nc1ccc2c(c1)OCCO2)C(=O)Nc1ccc(Cl)cc1` (centres undefined) were 8 µM (≈ 2.66 µg/mL), 5.2, 398 nM and 6.4.
In series [1], `CC(Nc1ccc2c(c1)OCCO2)C(=O)Nc1ccc(C#N)cc1` (centres undefined) returned an MIC of 31 µM (≈ 10 µg/mL). In series [2], this compound had a logD of 4.2. Further, in series [3], 2000 nM corresponded to half-maximal inhibition (IC50) and the pIC50 worked out at 5.7.
In series [3], `COc1cccc(NC(C)C(=O)Nc2ccc(Br)cc2)c1` (centres undefined) displayed an IC50 of 1590 nM and a pIC50 of 5.8.
`CC(Cc1ccc2c(c1)OCCO2)C(=O)Nc1ccc(Br)cc1` (centres undefined): the MIC in series [1] was determined as 110 µM (≈ 41.4 µg/mL). In series [3], the IC50 stood at 2000 nM and the negative-log IC50 (pIC50) worked out at 5.7.
`CC(Nc1ccc2c(c1)OCCO2)C(=O)Nc1ccc(Br)nc1` (centres undefined) yielded an MIC in series [1] of 32 µM (≈ 12.1 µg/mL). The compound further showed a logD in series [2] of 4.2. Further, in series [3], the 50% inhibitory concentration (IC50) was 1590 nM and the pIC50 worked out at 5.8.
Taken in the same sequence, the figures for `CC(Nc1ccc(Br)cc1)C(=O)Nc1ccc2c(c1)OCCO2` (centres undefined) were 125 µM (≈ 47.2 µg/mL), 5.3, 63100 nM and 4.2.
Regarding `O=C1C(Cc2ccc3c(c2)OCCO3)CCN1c1ccc(Br)cc1` (centres undefined), the MIC in series [1] was > 125 µM. In addition, in series [2], the logD was 6. In series [3], half-maximal inhibition (IC50) was put at 31600 nM and the pIC50 was 4.5.
In the case of `CC(Nc1ccc2c(c1)NCCO2)C(=O)Nc1ccc(Br)cc1` (centres undefined), in series [1], the MIC is > 125 µM. Further, the logD in series [2] was found to be 4.8. Further, in series [3], half-maximal inhibition (IC50) required 2510 nM and the pIC50 is on record as 5.6.
In series [1], `O=C(CNc1ccc2c(c1)OCCO2)Nc1ccc(Br)cc1` came in with a minimal inhibitory concentration (MIC) of 16 µM (≈ 5.81 µg/mL). This compound registered a logD in series [2] of 5.1. In series [3], half-maximal inhibition (IC50) was put at 200 nM and the pIC50 stood at 6.7.
Taken in the same sequence, the figures for `CC(Nc1ccc2c(c1)CCCC2)C(=O)Nc1ccc(Br)cc1` (centres undefined) were 16 µM (≈ 5.97 µg/mL), 7.7, 631 nM and 6.2.
In turn, `CC(Nc1ccc2c(c1)OCCO2)C(=O)Nc1ccc2cn[nH]c2c1` (centres undefined) had an MIC in series [1] of 31 µM (≈ 10.5 µg/mL). Further, in series [2], the logD turned out to be 3. Besides, in series [3], it took 3980 nM to reach half-maximal inhibition (IC50) and the negative-log IC50 (pIC50) is on record as 5.4.
For `CC(C)(Nc1ccc2c(c1)OCCO2)C(=O)Nc1ccc(Br)cc1`, the MIC in series [1] is 4 µM (≈ 1.57 µg/mL). This compound also displayed a logD in series [2] of 6.3. In series [3], half-maximal inhibition (IC50) was put at 126 nM and the pIC50 was found to be 6.9.
In series [2], `CC(Nc1ccc2c(c1)OCCO2)C(=O)Nc1ccc(-c2cnco2)cc1` (centres undefined) returned a logD of 3.7. Further, in series [3], the IC50 was > 100000 nM and the pIC50 is listed as < 4.
Take `CC(Nc1ccc(Br)cc1)C(=O)Nc1ccc(Br)cc1` (centres undefined): in series [3], the IC50 turned out to be 3980 nM and the pIC50 is 5.4.
Consider `CC(Nc1ccc2c(c1)OCCO2)C(=O)NC1CCCCC1` (centres undefined), for which the MIC in series [1] was > 125 µM. In series [2], this compound came in with a pH-dependent lipophilicity (logD) of 4.4. In series [3], this compound gave an IC50 of 39800 nM and a pIC50 of 4.4.
Turning to `CC(Nc1ccc2c(c1)OCCO2)C(=O)N(C)C` (centres undefined), the MIC in series [1] was > 125 µM. This compound yielded a logD in series [2] of 2.2. In series [3], this compound registered an IC50 of 39800 nM and a pIC50 of 4.4.
`CC(Nc1ccc2c(c1)OCCO2)C(=O)Nc1ccc(-c2cccnc2)cc1` (centres undefined) registered a log distribution coefficient (logD) in series [2] of 4.2. Moreover, in series [3], the 50% inhibitory concentration (IC50) was > 100000 nM and the pIC50 is < 4.
`CC(Nc1ccc2c(c1)OCC(=O)N2)C(=O)Nc1ccc(Br)cc1` (centres undefined) displayed a logD in series [2] of 3.9. Besides, in series [3], the IC50 was > 100000 nM and the pIC50 is < 4.
For the compound `C[C@H](Nc1ccc2c(c1)OCCO2)C(=O)Nc1ccc(Br)cc1`, in series [1], the MIC stood at 13 µM (≈ 4.9 µg/mL). Further, the logD in series [2] amounted to 5.5. Besides, in series [3], the IC50 came out at 1000 nM and the pIC50 was found to be 6.
Taken in the same sequence, the figures for `COc1ccc(NC(C)C(=O)Nc2ccc(Br)cc2)cc1OC` (centres undefined) were 40 µM (≈ 15.2 µg/mL), 5.2, 2000 nM and 5.7.
`CC(Nc1ccc2c(c1)OCCO2)C(=O)Nc1ccc(Br)cc1` (racemic): in the series with HepG2, the IC50 was > 100000 nM. The same compound yielded an MIC in series [1] of 7.8 µM (≈ 2.94 µg/mL). In series [2], this compound had a logD of 5.5. Moreover, in series [3], 63 nM corresponded to half-maximal inhibition (IC50) and the pIC50 was determined as 7.2.
For `NNC(=O)c1ccncc1` [ISONIAZID], in series [1], the MIC was 1.8 µM (≈ 0.247 µg/mL).
